Test results as given in patent publication US9809861B2, “Method of evaluating inhibitory effect on damp-dry malodor” (Kao Corporation, priority 2012, dated 2017).

Assays:
Δ9desaturase gene = test: Change in expression amount of Δ9desaturase gene in the presence of test substance (real time PCR); assay type: cell-based, Moraxella sp. KMC4-1; conditions: for Change in the expression amount of Δ9desaturase gene: Substance (1) 10 ppm, (2)(3)(5)(6) 100 ppm, (4) 500 ppm
Description: The substances (1) to (7) described below each were added to 4 mL SCD liquid medium (manufactured by NIHON PHARMACEUTICAL CO., LTD). As a control, a medium system not added with any test substance was also prepared. To these medium, one platinum loop of precultured Moraxella sp. KMC4-1 was inoculated and cultured for 24 hours at 35 C while shaking (160 rpm).
To the cell liquid cultured for 24 hours, 10 mg of 16-methyloctadecanoic acid was added as a sebaceous dirt component. After culturing again for 6 hours at 35° C., the cells were collected. As a control, a system not added with a sebaceous dirt component was also cultured and cells were collected therefrom.
An RNA sample was prepared from the collected cells in the same manner as in the test example 1.
By mixing 2 μL solution of the prepared template diluted ×20 with distilled sterile water, 12.5 μL of TaKaRa SYBR Premix EX Taq (trade name, manufactured by Takara Bio Inc.), 0.5 μL of the primer (des_F1, […]) containing the oligonucleotide having the base sequence set forth in SEQ ID NO: 13, 0.5 μL of the primer (des_R1, […]) containing the oligonucleotide having the base sequence set forth in SEQ ID NO: 14 and 9.5 μL of distilled sterile water, 25 μL reaction solution for real time PCR was prepared.
Reaction solutions for real time PCR were prepared in the same manner as above, except that, instead of the primer set including the primer containing the oligonucleotide having the base sequence set forth in SEQ ID NO: 13 and the primer containing the oligonucleotide having the base sequence set forth in SEQ ID NO: 14, the primer set described in Tables 11 to 13 was used.
The reaction solutions for real time PCR each were subjected to a gene amplification by using an automatic gene amplification thermal cycler DICE Real time system II (manufactured by Takara Bio Inc.), and then the expression amount of each of the fatty acid desaturase gene (the Δ9desaturase gene) and the β oxidation-relating enzyme genes (the fadB gene and the fadD gene) was measured. PCR reaction conditions were 40 cycles of (i) a thermal denaturation reaction at 95° C. for 20 seconds, and (ii) an annealing reaction and an elongation reaction at 60° C. for 30 seconds.
By having the gene expression of 16S rRNA as an internal standard, and having the gene expression amount when adding no sebaceous dirt component and no test substance as a reference value, change in expression amount of each gene was calculated relative to the reference value. A sample, in which the expression amount of the gene was ½ times or less the reference value, was rated as “A”; a sample, in which the expression amount of the gene was more than ½ times and ⅔ times or less the reference value, was rated as “B”; and a sample, in which the expression amount of the gene was more than ⅔ times the reference value, was rated as “C”.

Moraxella sp. KMC4-1 [1] = test: Quantification of 4M3H produced in model examination cloth (LC-FL); assay type: cell-based; conditions: for Ratio of suppressing 4M3H production: cotton cloth with 0.5 mg 14-methylhexadecanoic acid, 24 hours, 37° C., relative to no test substance, Substance (1) 10 ppm, (2)(3)(5)(6) 100 ppm, (4) 500 ppm; for 4M3H production inhibition ratio: summary of Table 14
Description: Subsequently, by using Moraxella sp. KMC4-1, which is one kind of the microorganisms which produce damp-dry malodor-causing substances, sensory evaluation of the inhibitory effect on damp-dry malodor by the test substance and measurement of production amount of 4M3H as one kind of the damp-dry malodor-causing substances were carried out.
Moraxella sp. KMC4-1 was inoculated as a test microbe onto SCD-LP agar medium (manufactured by Wako Pure Chemical Industries, Ltd.) and cultured for 1 to 2 weeks at room temperature to give a pre-culture plate. Colony surface was scraped off from the pre-culture plate, suspended in 5 mL of physiological saline, and OD600 was adjusted to 1.0 (about 10^8 CFU/mL).
A cotton jersey cloth obtained in a constant state after sterilization and drying at 25° C., 40% RH (cotton jersey manufactured by Shikisensha Colo., LTD., without silket finish) was cut to a square of 2 cm×2 cm. To the cloth, a solution prepared by dissolving 0.5 mg of 14-methylhexadecanoic acid, as a sebaceous dirt component, in 0.1 mL methanol, was applied. Then, methanol was dried to solid, to give a model examination cloth.
[…] It was then dried for 2 hours at room temperature to dry methanol. Thereafter, 0.1 mL of the microbe suspension was coated onto the model examination cloth, and cultured for 24 hours in a petri dish using an incubator at 37° C. with relative humidity of 70%, to obtain a microbe-fixed cloth.
Further, the model examination cloth was analyzed by using LC-FL (liquid chromatography apparatus: HITACHI ELITE LaChrom (trade name, manufactured by Hitachi, Ltd.), column: Lichrosphere 100 RP-8(e) (trade name, manufactured by Agilent Technologies, Inc., 5 μm×125 mm×4 mmφ), column temperature: 40° C., eluent: a mixed solution of acetonitrile/water=7/3 (volume ratio), flow rate: 1.0 mL/min, detector: excitation wavelength (365 nm), measurement wavelength (412 nm)), and thereby quantification of 4M3H thus produced in the model examination cloth was carried out. Ratio of the produced 4M3H amount relative to the 4M3H production amount when no test substance was added was calculated, and then ratio of suppressing 4M3H production was calculated.

Moraxella sp. KMC4-1 [2] = test: Growth-inhibitory test; assay type: cell-based; conditions: SCD liquid medium, 24 hours, 35° C., (4) 500 ppm; for Growth-inhibitory effect: initial 10^4 CFU/mL, Substance (1) 10 ppm, (2)(3)(5)(6) 100 ppm; for Growth-inhibitory effect: bacteria number decrease compared to the control: Substance (2) 100 ppm
Description: To 4 mL of SCD liquid medium (manufactured by NIHON PHARMACEUTICAL CO., LTD), the substances (1) to (7) each were added so as to be the final concentration described in Table 15. As a control, a medium system not added with any test substance was also prepared. To the medium, the precultured Moraxella sp. KMC4-1 was inoculated so as to be the initial concentration of 10^4 CFU/mL and cultured for 24 hours at 35° C. while shaking (160 rpm). After that, it was subjected to serial dilution using LP dilution solution (NIHON PHARMACEUTICAL CO., LTD). Then, by using SCD-LP agar medium (NIHON PHARMACEUTICAL CO., LTD), the number of bacteria remained alive was determined.
As for the growth-inhibitory and the bactericidal effect, the evaluation was made as follows: compared to the control, when there was the bacteria number decrease of log 3 or more, it was rated as “A”; when there was the bacteria number decrease of log 1 or more but less than log 3, it was rated as “B”; and when there was the bacteria number decrease of less than log 1, it was rated as “C”.

[3] = primers SEQ ID NO: 13 / 14, 16-methyloctadecanoic acid added, relative to reference without sebaceous dirt component and test substance

Compound	Change in the expression amount of Δ9desaturase gene (Δ9desaturase gene; [3])	Change in the expression amount of Δ9desaturase gene (Δ9desaturase gene; primers SEQ ID NO: 15 / 16)	Change in the expression amount of Δ9desaturase gene (Δ9desaturase gene; primers SEQ ID NO: 17 / 18)	Change in the expression amount of Δ9desaturase gene (Δ9desaturase gene; primers SEQ ID NO: 19 / 20)	Change in the expression amount of Δ9desaturase gene (Δ9desaturase gene; primers SEQ ID NO: 21 / 22)	Change in the expression amount of Δ9desaturase gene (Δ9desaturase gene; primers SEQ ID NO: 23 / 24)	expression amount of the Δ9desaturase gene by the microorganisms (Δ9desaturase gene; summary of Table 11)	Ratio of suppressing 4M3H production (Moraxella sp. KMC4-1 [1])	4M3H production inhibition ratio (Moraxella sp. KMC4-1 [1])	Growth-inhibitory effect (Moraxella sp. KMC4-1 [2])	Growth-inhibitory effect: bacteria number decrease compared to the control (Moraxella sp. KMC4-1 [2])
CCCCCCCCCC=O [Substance (1)]	B (the expression amount of the gene was more than ½ times and ⅔ times or less the reference value)	B (the expression amount of the gene was more than ½ times and ⅔ times or less the reference value)	A (the expression amount of the gene was ½ times or less the reference value)	A (the expression amount of the gene was ½ times or less the reference value)	B (the expression amount of the gene was more than ½ times and ⅔ times or less the reference value)	B (the expression amount of the gene was more than ½ times and ⅔ times or less the reference value)	decreased	100%	high	C (the bacteria number decrease of less than log 1)	–
CC(=O)OC(C)(C)Cc1ccccc1 [Substance (2)]	C (the expression amount of the gene was more than ⅔ times the reference value)	B (the expression amount of the gene was more than ½ times and ⅔ times or less the reference value)	B (the expression amount of the gene was more than ½ times and ⅔ times or less the reference value)	B (the expression amount of the gene was more than ½ times and ⅔ times or less the reference value)	C (the expression amount of the gene was more than ⅔ times the reference value)	C (the expression amount of the gene was more than ⅔ times the reference value)	–	100%	high	B (the bacteria number decrease of log 1 or more but less than log 3)	2 log
CNc1ccccc1C(=O)OC [Substance (3)]	C (the expression amount of the gene was more than ⅔ times the reference value)	C (the expression amount of the gene was more than ⅔ times the reference value)	C (the expression amount of the gene was more than ⅔ times the reference value)	C (the expression amount of the gene was more than ⅔ times the reference value)	C (the expression amount of the gene was more than ⅔ times the reference value)	C (the expression amount of the gene was more than ⅔ times the reference value)	–	91%	high	C (the bacteria number decrease of less than log 1)	–
CCCCCCCC/C=C\CCCCCCCC(=O)O [Substance (4)]	C (the expression amount of the gene was more than ⅔ times the reference value)	C (the expression amount of the gene was more than ⅔ times the reference value)	C (the expression amount of the gene was more than ⅔ times the reference value)	C (the expression amount of the gene was more than ⅔ times the reference value)	C (the expression amount of the gene was more than ⅔ times the reference value)	C (the expression amount of the gene was more than ⅔ times the reference value)	–	81%	high	B (the bacteria number decrease of log 1 or more but less than log 3)	2 log
O=C[C@H](O)[C@@H](O)[C@H](O)[C@H](O)CO [Substance (5)]	C (the expression amount of the gene was more than ⅔ times the reference value)	C (the expression amount of the gene was more than ⅔ times the reference value)	C (the expression amount of the gene was more than ⅔ times the reference value)	C (the expression amount of the gene was more than ⅔ times the reference value)	C (the expression amount of the gene was more than ⅔ times the reference value)	C (the expression amount of the gene was more than ⅔ times the reference value)	–	0%	–	C (the bacteria number decrease of less than log 1)	–
